The values that follow come from patent US10947185B2, “Crystal form of dezocine and preparation method therefor” (priority 2017, dated 2021).

For series [1] the following is noted: relative to Dolantin; cited from earlier work.
A short description of series [2]: Stability test: changes of related substances over 6 months. It is filed as physicochemical. From the text:
iii. Compared with the sample of crystal Form I of dezocine, the new crystal form of dezocine prepared according to the present application has better stability, and changes of the related substances within the new crystal form of dezocine over 6 months are as follows: […]

Series [3] is described as follows: Solubility test in 0.1 mol/L hydrochloric acid solution. It is filed as physicochemical. The following applies: for solubility: 50 mg sample.

Each structure is given as a SMILES string. In brackets after ≈: the same amount, converted by molar mass. Like-named read-outs stand apart in the source and are kept apart here.

With `C[C@@]12CCCCC[C@@H](Cc3ccc(O)cc31)[C@@H]2N` (relative stereo) [Dezocine, (−)-[5R-(5α,11α,13S*)]-13-amino-5,6,7,8,9,10,11,12-octahydro-5-methyl-5,11-methanobenzocy clodecen-3-ol], the “Analgesic intensity, onset time, duration of action and maximum analgesic effect, stronger than those of Dolantin” value in series [1] is listed as 5-9 times.

Turning to `C[C@@]12CCCCC[C@@H](Cc3ccc(O)cc31)[C@@H]2N` (relative stereo) [Example 1, (−)-[5R-(5α,11α,13S*)]-13-amino-5,6,7,8,9,10,11,12-octahydro-5-methyl-5,11-methanobenzocy clodecen-3-ol], the Related substances in series [2] (0 days) is 0.06%; in series [2] (1 month), 0.07%; in series [2] (3 months), 0.10%; in series [2] (6 months), 0.13%.

In the case of `C[C@@]12CCCCC[C@@H](Cc3ccc(O)cc31)[C@@H]2N` (relative stereo) [Example 2, (−)-[5R-(5α,11α,13S*)]-13-amino-5,6,7,8,9,10,11,12-octahydro-5-methyl-5,11-methanobenzocy clodecen-3-ol], the Related substances was determined as 0.07% in series [2] (0 days), 0.09% in series [2] (1 month), 0.10% in series [2] (3 months) and 0.12% in series [2] (6 months).

As for `C[C@@]12CCCCC[C@@H](Cc3ccc(O)cc31)[C@@H]2N` (relative stereo) [Example 3, (−)-[5R-(5α,11α,13S*)]-13-amino-5,6,7,8,9,10,11,12-octahydro-5-methyl-5,11-methanobenzocy clodecen-3-ol], the Related substances in series [2] (0 days) was 0.04%; in series [2] (1 month) it was 0.05%; in series [2] (3 months), 0.8%; in series [2] (6 months), 0.10%.

Take `C[C@@]12CCCCC[C@@H](Cc3ccc(O)cc31)[C@@H]2N` (relative stereo) [Example 4, (−)-[5R-(5α,11α,13S*)]-13-amino-5,6,7,8,9,10,11,12-octahydro-5-methyl-5,11-methanobenzocy clodecen-3-ol]: the Related substances in series [2] (0 days) was found to be 0.06%; in series [2] (1 month), 0.08%; in series [2] (3 months), 0.10%; in series [2] (6 months), 0.12%.

As to `C[C@@]12CCCCC[C@@H](Cc3ccc(O)cc31)[C@@H]2N` (relative stereo) [Example 5, (−)-[5R-(5α,11α,13S*)]-13-amino-5,6,7,8,9,10,11,12-octahydro-5-methyl-5,11-methanobenzocy clodecen-3-ol], the Related substances in series [2] (0 days) is on record as 0.04%; in series [2] (1 month), 0.06%; in series [2] (3 months), 0.07%; in series [2] (6 months), 0.09%.

As a reminder, the solubility is the dissolved amount per volume that the medium holds. Take `C[C@@]12CCCCC[C@@H](Cc3ccc(O)cc31)[C@@H]2N` (single isomer, unassigned) [Crystal Form I of dezocine, (−)-[5R-(5α,11α,13S*)]-13-amino-5,6,7,8,9,10,11,12-octahydro-5-methyl-5,11-methanobenzocy clodecen-3-ol, reference compound]: the Related substances in series [2] (0 days) came to 0.08%; in series [2] (1 month) it was 0.15%; in series [2] (3 months), 0.21%; in series [2] (6 months), 0.28%. Further, in series [3], the solubility came to 0.025 g/mL (≈ 102 mM).

Regarding `C[C@@]12CCCCC[C@@H](Cc3ccc(O)cc31)[C@@H]2N` (single isomer, unassigned) [Crystal Form II of dezocine, (−)-[5R-(5α,11α,13S*)]-13-amino-5,6,7,8,9,10,11,12-octahydro-5-methyl-5,11-methanobenzocy clodecen-3-ol], the “Solubility increase compared with crystal Form I of dezocine” value in series [3] was “about 32%”. For the same molecule, in series [3] (simulated gastric fluid, thermodynamic from solid, read-out: Solubility), the solubility was 0.033 g/mL (≈ 134 mM).
